Consider nine molecules from patent US20230270692A1, “COMPOUNDS FOR CHRONIC DISORDERS” (Pillai Universal LLC, priority 2020, published 2023).

The test system of series [1] is xenograft nude mice models (triple-negative breast cancer, pancreatic, liver, colon cancer). To be noted: mouse, in vivo.
Series [2] shares this test system. The series is described as follows: In vivo metastasis / stage IV tumor studies in xenograft nude mice versus standard drugs.
Series [3] deals with panel of human normal cell lines. Kind of series: MTT cytotoxicity of anticancer agents on normal cell lines, alone and with Compound I. Particulars: Homo sapiens, read-out: IC50 (average). The procedure:
The cytotoxicity of anticancer agents was studied using a panel of human normal cell lines alone and with the combination of Compound I of the present invention. The cytotoxicity effect was determined by MTT assay. The following cell lines were used: Human epidermal keratinocytes cells (HaCaT), Human dermal fibroblast (HDF), Human bone marrow mesenchymal stem cells (HBMSCs), Human normal hepatocytes cells (THLE2), Human cardiac cells (AC-16), Human intestinal epithelial cells (HIEC-6), Human neuronal cells (SHSY-5Y), Human vascular Endothelial cells (HuVECs), Human lung epithelial cells (Calu-3), Human lung fibroblast (MRC 5).
Next, the cells were treated with anticancer agents in combination with Compound I of the present invention.

The subject of series [4] is Pancreatic adenocarcinoma cells (PANC). Kind of series: MTT cell viability of pancreatic cancer cells. The format is cell-based, Human. Particulars: Homo sapiens, Pancreatic cancer cell. The procedure:
(§1) The synthesized compounds of Formula 1-4 were evaluated for cell proliferation, apoptosis, cell cycle arrest, the generation of reactive oxygen species and calcium were measured using MTT assay and flow cytometry, respectively. The expression of apoptosis- and proliferation-related proteins was determined by western blotting. The effect of molecules on apoptosis-related mRNA expression in cancer cells was detected by RT-PCR.
(§2) Changes in cell morphology were detected by the presence of cell membrane blebbing, chromatin condensation, and formation of apoptotic bodies (FIG. 10A).

Series [5] has as its system normal pancreatic cells. The series is described as follows: Viability of normal pancreatic cells. The format is cell-based, Human. Particulars: at 6 h. The procedure: as §1, §2
The test system of series [6] is PANC-1 xenograft. The series is described as follows: PANC-1 xenograft mouse model. The format is in vivo. To be noted: day 5 to day 30; 25 mg/kg gemcitabine, 10 mg/kg Compound I. The procedure:
Study Design: A PANC-1 xenograft mouse model was carried out according to the experimental design described in FIG. 21A. Tumor volume was monitored over a 30-day period upon administration of PBS alone (vehicle control), 25 mg/kg gemcitabine, and 10 mg/kg Compound I.

Read-outs that look alike come from different tables or passages of the source.

With `Nc1cccc2c1CN(C1CCC(=O)NC1=O)C2=O` (stereo not shown) [Revlimid], in series [1], the Toxicity result was “Cardiotoxicity, Hepatotoxicity, Toxicity to vital organs and normal tissues”. For the same molecule, the mortality (in general, the percentage killed) in series [2] (nude, mouse, in vivo) came to 100%; in series [2] (treating stage IV cancer), 100%.

As for `CC[C@]1(O)C[C@H]2CN(CCc3c([nH]c4ccccc34)[C@@](C(=O)OC)(c3cc4c(cc3OC)N(C=O)[C@H]3[C@@](O)(C(=O)OC)[C@H](OC(C)=O)[C@]5(CC)C=CCN6CC[C@]43[C@@H]65)C2)C1` [Vincristine], in series [3], the concentration for half-maximal inhibition (IC50) (commonly the concentration needed to halve the response being measured) fell in the range of 12.9 to 40.5 µM.

Consider `COc1cccc2c1C(=O)c1c(O)c3c(c(O)c1C2=O)C[C@@](O)(C(=O)CO)C[C@@H]3O[C@H]1C[C@H](N)[C@H](O)[C@H](C)O1` [Doxorubicin], for which the IC50 in series [3] was 12.9 to 40.5 µM.

Turning to `CCN(CCO)CCCC(C)Nc1ccnc2cc(Cl)ccc12` (stereo not shown) [Hydroxychloroquine], the 50% inhibitory concentration (IC50) in series [3] is 12.9 to 40.5 µM.

For `O=c1[nH]cc(F)c(=O)[nH]1` [5-Fluorouracil], in series [4] (3 h, read-out: decrease in viable cells), the cytotoxicity at 10 µM was 30.21 ± 0.21%. Moreover, the IC50 in series [4] (PANC cells, after 24 hours of exposure) was 5.21 ± 0.19 µM; in series [3], 12.9 to 40.5 µM. Besides, the Toxicity in series [5] is on record as 40.32±0.98%; in series [1] it was “Cardiotoxicity, Hepatotoxicity”. For the same molecule, in series [2] (mouse, in vivo), the “Antioxidant Activity (increased antioxidant parameters)” value worked out at 10% of. Further, in series [2] (mouse, in vivo), the “Tumor volume (reduction / changes)” value was 35%. The mortality is 70% in series [2] (nude, mouse, in vivo) and 70% in series [2] (treating stage IV cancer).

For `CCN(CC)CCCC(C)Nc1ccnc2cc(Cl)ccc12` (stereo not shown) [Chloroquine], in series [3], the IC50 is 12.9 to 40.5 µM.

Consider `CCc1c2c(nc3ccc(OC(=O)N4CCC(N5CCCCC5)CC4)cc13)-c1cc3c(c(=O)n1C2)COC(=O)[C@]3(O)CC` [Irinotecan], for which the half-inhibitory concentration (IC50) in series [3] was 12.9 to 40.5 µM.

Consider “Avastin: current treatment standard drug, Inhibition of VEGF”, for which, in series [2] (mouse, in vivo), the “Metastasis (prevention)” value is listed as 10%, the Toxicity result was “Toxic to vital”, the “Tumor volume (reduction / changes)” value worked out at 20% and the mortality amounted to 60%. In series [2] (treating stage IV cancer), this molecule displayed a mortality of 60%.

As for `Nc1ccn([C@@H]2O[C@H](CO)[C@@H](O)C2(F)F)c(=O)n1` [Gemcitabine], the concentration for half-maximal inhibition (IC50) in series [3] was in the range of 12.9 to 40.5 µM. For the same molecule, the tumor volume result in series [6] is “steadily increases”. For the same molecule, in series [1], the Toxicity result was “Developed”. Further, the “CSCs (target on CSCs population)” value in series [2] (mouse, in vivo) was determined as 5% Target on. Further, the mortality in series [2] (nude, mouse, in vivo) is on record as 50%; in series [2] (treating stage IV cancer) it was 50%.
